Assay results from patent US10100076B2, “Modified nucleosides for the treatment of viral infections and abnormal cellular proliferation” (priority 2000, dated 2018).
Like-named read-outs stand apart in the source and are kept apart here.

Key:
[1] = system: SUDHL-1 cells (human anaplastic large T-cell lymphoma cell line); assay: Prevention of β-D-GA-related cytotoxicity by natural nucleosides, SUDHL-1 cells; type: cell-based
Description: The prevention of β-D-GA-related cytotoxicity in CEM cells (human T-cell lymphoma) and in the SUDHL-1 cells (human anaplastic large T-cell lymphoma cell line) was studied by adding natural nucleosides. This experiment was initiated by adding 50 μM of natural nucleosides into the media, together with increasing concentration of β-D-GA. CEM cells were seeded at 2500 cells per well and incubated for 4 days (=fast growing cell line with a doubling time of 1.3 days). SUDHL-1 cells were seeded at 10,000 cells/well, and incubated for 3 days (=slow growing cell line, doubling time 3 days). The result of this experiment is plotted in FIG. 4.

Vero cells = assay: cells; type: cell-based
Description: (§1) The cytotoxicity testing as performed herein is a standard technique. Briefly, cells are seeded in 96-well plates at various concentrations (dependent on cell type, duration of assay), typically at 5×10^3 cells per well, in the presence of increasing concentrations of the test compound (0, 1, 3, 10, 33, and 100 μM). After three (Vero cells), or four (CEM cells), or five (PBM cells) day-incubation, cell viability and mitochondrial activity are measured by adding the MTT-dye (Promega), followed by a 8 hours incubation. Afterwards the plates containing the dye are fixed by adding a stop-solution followed by another eight hour incubation. Finally, absorbance is read at 570 nm. Such methodologies are well described and available from the manufacturer (Promega).

PBM cells = assay: cells; type: cell-based, human; settings: for % inhibition at 100 μM, PBM cells: five day incubation, MTT
Description: as §1

CEM cells = assay: cells; type: cell-based, human
Description: as §1

[2] = system: human malignant T and B cells and various tumor cell lines; assay: Toxicity profile against human malignant T and B cells and various tumor cell lines (MTT, IC50); type: cell-based; settings: for IC50: MTT assay, 3-5 days
Description: as §1, with “Cytotoxicity” for “The cytotoxicity”, “here are” for “herein is a”, “techniques.” for “technique.”, “Depending on the cell-type incubation with test compound can vary in time, but is usually within the range of 3 to 5 days. Cell” for “After three (Vero cells), or four (CEM cells), or five (PBM cells) day-incubation, cell”, “eight” for “a 8”, “hours of” for “hours”
In order to explore the complete potential of this compound, a set of human malignant T and B cells and various tumor cell lines were incubated with […] at varying concentrations, and after the absorbance was read, an IC50 value was calculated. As a control, Ara-C, 5FU, and cyclo-heximide was taken alongside (Table 26).

Influenza A (H3N2) [3] = assay: microbe, parasite or virus in culture; type: cell-based; settings: Initial Test, Neutral Red
HCV replicon = HCV replicon system in Huh7 cells, replicon RNA by Q-RT-PCR (HCV ΔCt, ΔΔCt); type: cell-based, hepatitis C virus; settings: for Ave. ΔΔCt: HCV RNA ΔCt minus rRNA ΔCt; for Ave. HCV RNA ΔCt: HCV replicon in Huh7 cells
[4] = system: rRNA (host RNA polymerase I product); assay: rRNA ΔCt in Huh7 replicon cells (effect on host RNA polymerases); settings: Table 24, average of n
Description: In a typical setting, a compound might reduce both the host RNA polymerase activity and the replicon-encoded polymerase activity. Therefore, quantification of rRNA (or any other host RNA polymerase I product) or beta-actin mRNA (or any other host RNA polymerase II) and comparison with RNA levels of the no-drug control is a relative measurement of the effect of the test compound on host RNA polymerases.
With the availability of both the HCV ΔCt data and the rRNA ΔCt, a specificity parameter can be introduced. This parameter is obtained by subtracting both ΔCt values from each other.

Influenza A (H1N1) [5] = assay: microbe, parasite or virus in culture; type: cell-based; settings: Initial Test, Neutral Red
rDNA (host DNA) = assay: rDNA ΔCt in Huh7 replicon cells (effect on cellular DNA polymerases); settings: Table 25, average of N
Description: In another typical setting, a compound might reduce the host RNA polymerase activity, but not the host DNA polymerase activity. Therefore, quantification of rDNA or beta-actin DNA (or any other host DNA fragment) and comparison with DNA levels of the no-drug control is a relative measurement of the inhibitory effect of the test compound on cellular DNA polymerases.
With the availability of both the HCV ΔCt data and the rDNA ΔCt, a specificity parameter can be introduced. This parameter is obtained by subtracting both ΔCt values from each other.

[6] = system: Parainfluenza Type 3 Virus; assay: organism not typed; type: cell-based; settings: Initial Test, Neutral Red
[7] = system: Parainfluenza Type 3 Virus; assay: organism not typed; type: cell-based, Parainfluenza type 3 virus strain 14702
Influenza B [8] = assay: microbe, parasite or virus in culture; type: cell-based; settings: Initial Test, Neutral Red
[9] = system: Respiratory Syncytial Virus A; assay: microbe, parasite or virus in culture; type: cell-based, Respiratory Syncytial Virus strain A2
Influenza A (H1N1) [10] = assay: microbe, parasite or virus in culture; type: cell-based; settings: Initial Test, CPE Inhibition (Visual)
Influenza B [11] = assay: microbe, parasite or virus in culture; type: cell-based; settings: Initial Test, CPE Inhibition (Visual)
Influenza A (H3N2) [12] = assay: microbe, parasite or virus in culture; type: cell-based; settings: Initial Test, CPE Inhibition (Visual)
[13] = system: Respiratory Syncytial Virus A; assay: microbe, parasite or virus in culture; type: cell-based; settings: Initial Test, Neutral Red
[14] = Vero (African green monkey kidney cell line), MTT assay, incubation 3-5 days, read-out: Toxicity IC50
[15] = PBM (human peripheral blood mononuclear cells), MTT assay, incubation 3-5 days, read-out: Toxicity IC50
[16] = CEM (human T-cell lymphoma cell line), MTT assay, incubation 3-5 days, read-out: Toxicity IC50
[17] = BL41 (human B-cell lymphoma cell line), read-out: Toxicity IC50
[18] = H9 (human T-cell lymphoblast cell line), read-out: Toxicity IC50
[19] = HEPG2 (human liver carcinoma cell line), read-out: Toxicity IC50
[20] = JY (human B-cell lymphoma cell line, EBV transformed), read-out: Toxicity IC50
[21] = LNCaP (human prostate adenocarcinoma cell line), read-out: Toxicity IC50
[22] = MCF-7 (human breast carcinoma cell line), read-out: Toxicity IC50
[23] = SK-MEL-28 (human melanoma cell line), read-out: Toxicity IC50
[24] = SK-MES-1 (human lung squamous carcinoma cell line), read-out: Toxicity IC50
[25] = SupT1 (human T-cell lymphoblast cell line), read-out: Toxicity IC50
[26] = SUDHL-1 (human anaplastic large T-cell lymphoma cell line), read-out: Toxicity IC50

Nc1ccn([C@H]2C[C@H](O)[C@@H](CO)O2)c(=O)n1 [2′-Deoxycytidine]
prevention of β-D-GA toxicity, in words ([1]; 50 μM natural nucleoside, SUDHL-1 cells, 3 days, FIG. 4): modest preventive activity effect

O=c1[nH]cc(F)c(=O)[nH]1 [5FU]
IC50 (Vero cells; [14]): 65 µM | IC50 (PBM cells; [15]): 13.7 µM | IC50 (CEM cells; [16]): 90.5 µM | IC50 [2, 17]: 24.1 µM | IC50 [2, 18]: 14.2 µM | IC50 [2, 19]: 40.6 µM | IC50 [2, 20]: 7.5 µM | IC50 [2, 21]: 22.1 µM | IC50 [2, 22]: 43.7 µM | IC50 [2, 23]: 11.2 µM | IC50 [2, 24]: 13.1 µM | IC50 [2, 25]: 53.6 µM

Nc1ccn([C@@H]2O[C@H](CO)[C@@H](O)[C@@H]2O)c(=O)n1 [Ara-C, reference compound]
IC50 (Vero cells; [14]): 0.8 µM | IC50 (PBM cells; [15]): 7 µM | IC50 (CEM cells; [16]): 0.6 µM | IC50 [2, 26]: 3.7 µM

C[C@@H]1C[C@@H]([C@H](O)CC2CC(=O)NC(=O)C2)C(=O)[C@@H](C)C1 [cyclo-heximide]
IC50 (Vero cells; Chlorocebus sabaeus, Vero, read-out: Toxicity IC50): 2.1 µM | IC50 (PBM cells; Homo sapiens, PBMC, read-out: Toxicity IC50): 2.6 µM | IC50 (CEM cells; Homo sapiens, CCRF-CEM, read-out: Toxicity IC50): 0.1 µM | IC50 ([2]; Homo sapiens, B-cell, read-out: Toxicity IC50, H9 (human T-cell lymphoblast cell line)): 1 µM | IC50 ([2]; Homo sapiens, B-cell, read-out: Toxicity IC50, JY (human B-cell lymphoma cell line, EBV transformed)): 0.8 µM | IC50 ([2]; Homo sapiens, BL-41, read-out: Toxicity IC50, BL41 (human B-cell lymphoma cell line)): 0.3 µM | IC50 ([2]; Homo sapiens, HepG2, read-out: Toxicity IC50, HEPG2 (human liver carcinoma cell line)): 3.6 µM | IC50 ([2]; Homo sapiens, LNCaP, read-out: Toxicity IC50, LNCaP (human prostate adenocarcinoma cell line)): 2.4 µM | IC50 ([2]; Homo sapiens, MCF7, read-out: Toxicity IC50, MCF-7 (human breast carcinoma cell line)): 1.5 µM | IC50 ([2]; Homo sapiens, SK-MEL-28, read-out: Toxicity IC50, SK-MEL-28 (human melanoma cell line)): 1 µM | IC50 ([2]; Homo sapiens, SK-MES-1, read-out: Toxicity IC50, SK-MES-1 (human lung squamous carcinoma cell line)): 3.4 µM | IC50 ([2]; Homo sapiens, SU-DHL-1, read-out: Toxicity IC50, SUDHL-1 (human anaplastic large T-cell lymphoma cell line)): 0.3 µM | IC50 ([2]; Homo sapiens, SUP-T1, read-out: Toxicity IC50, SupT1 (human T-cell lymphoblast cell line)): 0.6 µM

Nc1ccn([C@@H]2O[C@H](CO)C[C@H]2O)c(=O)n1 [β-D-AJ]
EC50 (Influenza A (H3N2) [3]): > 500 µM | Ave. ΔΔCt (HCV replicon; Table 24): 1.18 | Ave. HCV RNA ΔCt (HCV replicon; Table 24, average of n): 2.92 | average ΔΔCt (HCV replicon; Table 25, HCV RNA ΔCt minus rDNA ΔCt): 2.33 | Ave. HCV RNA ΔCt (HCV replicon; Table 25, average of N): 2.75 | Ave. rRNA ΔCt [4]: 1.74 | EC50 (Influenza A (H1N1) [5]): 150 µM | Ave. rDNA ΔCt (rDNA (host DNA)): 0.43 | EC50 [6]: > 500 µM | EC50 ([7]; Initial Test, CPE Inhibition (Visual), read-out: EC50, Parainfluenza Type 3 Virus): > 500 µM | EC50 (Influenza B [8]): 150 µM | EC50 ([9]; Initial Test, CPE Inhibition (Visual), read-out: EC50, RSV): > 500 µM | EC50 (Influenza A (H1N1) [10]): 150 µM | EC50 (Influenza B [11]): 150 µM | EC50 (Influenza A (H3N2) [12]): > 500 µM | EC50 [13]: > 500 µM

O=c1[nH]c(=O)n([C@@H]2O[C@H](CO)[C@@H](O)[C@H]2O)cc1O [β-D-CL, 5-hydroxyuridine]
EC50 (Influenza A (H3N2) [3]; Influenza A virus, H3N2, MDCK): > 5 µM | EC50 (Influenza A (H1N1) [5]; Influenza A virus, H1N1, MDCK): 8 µM | SI (Selectivity Index), Influenza A (H1N1) (Influenza A (H1N1) [5]): 1.1 | SI (Selectivity Index), Parainfluenza Type 3 Virus [6]: 1 | EC50 ([6]; MA104): 40 µM | EC50 ([7]; MA104, read-out: EC50, Parainfluenza Type 3 Virus): 90 µM | EC50 (Influenza B [8]; Influenza B virus, MDCK): > 5 µM | antiviral activity against RSV, in words [9]: potent in-vitro anti-RSV compound | SI (Selectivity Index), RSV ([9]; Initial Test, CPE Inhibition (Visual)): 150 | EC50 ([9]; human respiratory syncytial virus, MA104, read-out: EC50, RSV): 0.5 µM | EC50 (Influenza A (H1N1) [10]; Influenza A virus, H1N1, MDCK): > 5 µM | EC50 (Influenza B [11]; Influenza B virus, MDCK): > 5 µM | EC50 (Influenza A (H3N2) [12]; Influenza A virus, H3N2, MDCK): > 5 µM | SI (Selectivity Index), RSV [13]: >170 | EC50 ([13]; human respiratory syncytial virus, MA104): < 0.5 µM

Nc1nc(=O)n([C@@H]2C[C@H](CO)[C@@H](O)[C@H]2O)cc1F [β-D-GA]
IC50 (Vero cells): > 57.4 µM | IC50 (Vero cells; [14]): > 100 µM | Ave. ΔΔCt (HCV replicon; Table 24): 3.93 | Ave. HCV RNA ΔCt (HCV replicon; Table 24, average of n): 6.04 | Ave. rRNA ΔCt [4]: 2.10 | IC50 (PBM cells): > 100 µM | % inhibition at 100 μM, PBM cells (PBM cells): 11.3% | IC50 (PBM cells; [15]): > 100 µM | IC50 (CEM cells): 1.9 µM | cytotoxic effect on CEM cells, in words (CEM cells): selective cytotoxic effect on CEM cells | IC50 (CEM cells; [16]): 2.9 µM | IC50 [2, 17]: < 1 µM | IC50 [2, 18]: 1.4 µM | IC50 [2, 19]: > 100 µM | IC50 [2, 20]: 3 µM | IC50 [2, 21]: 45.7 µM | IC50 [2, 22]: > 100 µM | IC50 [2, 23]: > 100 µM | IC50 [2, 24]: > 100 µM | IC50 [2, 26]: 0.7 µM | IC50 [2, 25]: 0.3 µM | toxicity in tumor cell panel, in words ([2]; human malignant T and B cells vs PBM and non-T or B neoplastic cells): potent toxicity in human malignant T and B cells, but not in human PBM cells and non-T or B neoplastic cells | effectiveness against slow vs fast growing cells, in words ([1]; SUDHL-1 and CEM cells): equally effective against slower growing SUDHL-1 cells and fast growing CEM cells

Nc1nc(=O)n([C@H]2C[C@@H](CO)[C@H](O)[C@@H]2O)cc1Cl [β-L-GI]
IC50 (Vero cells): > 100 µM | % inhibition at 100 μM, Vero Cells (Vero cells; 100 μM, three day incubation, MTT): 31.9% | IC50 (PBM cells): > 100 µM | % inhibition at 100 μM, PBM cells (PBM cells): −47.8% | IC50 (CEM cells): > 100 µM | % inhibition at 100 μM, CEM Cells (CEM cells; 100 μM, four day incubation, MTT): 18.0%
